Reference: ChEMBL document CHEMBL1201862, “PubChem BioAssay data set” (2004)
Activity calls are given as the source filed them.

Key:
[1] = target: T1, Exodeoxyribonuclease V (Escherichia coli (strain K12), UniProt P04993+P07648+P08394); assay: E. coli RecBCD inhibitors, dose response, counter-screen for AddAB inhibitor project, absorbance, V66 E. coli, mutant T4 phage (AID 492957); assay type: functional, cell-based, Escherichia coli str. K-12 substr. MG1655
T1 sequence (P04993 whole entry): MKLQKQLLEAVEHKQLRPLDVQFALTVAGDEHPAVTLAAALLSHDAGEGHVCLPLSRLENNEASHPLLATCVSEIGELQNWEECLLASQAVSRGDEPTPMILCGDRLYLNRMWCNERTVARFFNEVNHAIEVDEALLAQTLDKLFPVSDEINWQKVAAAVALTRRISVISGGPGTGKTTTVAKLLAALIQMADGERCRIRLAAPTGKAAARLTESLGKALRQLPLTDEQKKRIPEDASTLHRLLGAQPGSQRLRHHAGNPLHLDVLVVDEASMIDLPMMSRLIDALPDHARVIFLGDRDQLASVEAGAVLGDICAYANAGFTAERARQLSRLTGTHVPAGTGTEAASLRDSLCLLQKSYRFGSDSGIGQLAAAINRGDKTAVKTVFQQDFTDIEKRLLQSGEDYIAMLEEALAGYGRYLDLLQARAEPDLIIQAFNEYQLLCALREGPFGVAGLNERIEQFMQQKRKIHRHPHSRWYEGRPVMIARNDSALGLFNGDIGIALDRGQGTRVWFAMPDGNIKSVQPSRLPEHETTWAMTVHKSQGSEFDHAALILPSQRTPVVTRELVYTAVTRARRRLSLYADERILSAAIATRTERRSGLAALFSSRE
T1 sequence (P07648 whole entry): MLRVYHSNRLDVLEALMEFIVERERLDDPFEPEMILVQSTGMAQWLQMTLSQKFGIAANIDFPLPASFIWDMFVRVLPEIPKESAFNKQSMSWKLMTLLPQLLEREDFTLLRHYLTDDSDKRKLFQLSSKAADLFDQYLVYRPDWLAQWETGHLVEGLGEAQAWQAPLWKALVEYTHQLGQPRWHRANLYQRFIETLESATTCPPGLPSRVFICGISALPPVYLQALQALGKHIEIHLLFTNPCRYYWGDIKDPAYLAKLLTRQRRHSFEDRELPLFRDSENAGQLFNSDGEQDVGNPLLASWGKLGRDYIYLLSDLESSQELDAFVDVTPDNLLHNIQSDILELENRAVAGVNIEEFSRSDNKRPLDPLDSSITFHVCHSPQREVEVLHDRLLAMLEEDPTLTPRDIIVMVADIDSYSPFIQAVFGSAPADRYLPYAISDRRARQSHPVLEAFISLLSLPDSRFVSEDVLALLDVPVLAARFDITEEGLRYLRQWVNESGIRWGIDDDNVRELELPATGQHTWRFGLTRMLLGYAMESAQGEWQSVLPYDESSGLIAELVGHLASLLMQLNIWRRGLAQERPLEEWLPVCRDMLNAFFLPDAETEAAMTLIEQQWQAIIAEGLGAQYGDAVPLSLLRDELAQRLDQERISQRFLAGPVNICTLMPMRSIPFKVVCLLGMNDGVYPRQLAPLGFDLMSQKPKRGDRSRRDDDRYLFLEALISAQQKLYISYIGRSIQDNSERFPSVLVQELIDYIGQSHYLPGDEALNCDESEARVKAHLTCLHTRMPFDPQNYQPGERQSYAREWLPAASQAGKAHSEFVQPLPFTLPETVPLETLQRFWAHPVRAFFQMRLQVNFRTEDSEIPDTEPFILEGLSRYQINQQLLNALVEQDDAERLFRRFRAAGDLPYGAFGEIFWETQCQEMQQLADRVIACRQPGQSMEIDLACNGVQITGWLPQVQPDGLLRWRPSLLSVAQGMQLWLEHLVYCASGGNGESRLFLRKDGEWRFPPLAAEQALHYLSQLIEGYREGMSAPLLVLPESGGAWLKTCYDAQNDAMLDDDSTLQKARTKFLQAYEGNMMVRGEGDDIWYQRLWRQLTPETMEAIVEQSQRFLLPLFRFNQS
T1 sequence (P08394 whole entry): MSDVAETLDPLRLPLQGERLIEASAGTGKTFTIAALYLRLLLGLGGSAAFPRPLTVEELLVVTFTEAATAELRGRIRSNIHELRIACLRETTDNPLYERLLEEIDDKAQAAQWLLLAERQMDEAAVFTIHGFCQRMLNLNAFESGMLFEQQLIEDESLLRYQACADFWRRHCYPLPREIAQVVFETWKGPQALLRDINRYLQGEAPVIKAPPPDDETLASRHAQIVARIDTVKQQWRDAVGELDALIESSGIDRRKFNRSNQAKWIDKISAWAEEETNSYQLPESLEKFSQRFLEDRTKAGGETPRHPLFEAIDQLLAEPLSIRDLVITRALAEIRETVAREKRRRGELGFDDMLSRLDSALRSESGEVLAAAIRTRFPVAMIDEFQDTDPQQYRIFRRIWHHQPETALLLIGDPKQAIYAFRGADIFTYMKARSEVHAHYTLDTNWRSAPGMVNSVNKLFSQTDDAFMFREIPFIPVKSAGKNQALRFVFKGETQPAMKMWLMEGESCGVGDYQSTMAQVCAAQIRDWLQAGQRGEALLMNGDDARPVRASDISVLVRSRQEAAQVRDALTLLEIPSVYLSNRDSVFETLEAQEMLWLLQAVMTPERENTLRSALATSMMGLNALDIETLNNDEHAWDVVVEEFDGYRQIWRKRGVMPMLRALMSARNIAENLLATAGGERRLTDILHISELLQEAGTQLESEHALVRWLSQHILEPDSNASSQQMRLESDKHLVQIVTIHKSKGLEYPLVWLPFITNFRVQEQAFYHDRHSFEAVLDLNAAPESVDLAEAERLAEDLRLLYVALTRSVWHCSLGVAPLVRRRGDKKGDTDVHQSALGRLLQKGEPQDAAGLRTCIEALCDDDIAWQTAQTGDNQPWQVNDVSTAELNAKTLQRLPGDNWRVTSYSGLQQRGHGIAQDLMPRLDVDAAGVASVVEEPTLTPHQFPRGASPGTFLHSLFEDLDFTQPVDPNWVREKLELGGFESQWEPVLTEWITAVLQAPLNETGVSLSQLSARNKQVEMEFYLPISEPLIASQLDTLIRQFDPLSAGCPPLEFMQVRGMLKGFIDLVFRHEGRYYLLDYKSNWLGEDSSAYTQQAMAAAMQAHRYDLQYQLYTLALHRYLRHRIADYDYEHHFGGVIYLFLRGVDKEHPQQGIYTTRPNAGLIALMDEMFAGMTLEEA

[2] = Counterscreen for AddAB inhibitors: absorbance-based bacterial cell-based high throughput dose response assay for inhibitors of bacterial viability. [Related pubchem assays (depositor defined):AID435030, AID449728, AID449731, AID488942, AID488955, AID488956]; assay type: functional
[3] = target: Paired box protein Pax-8 (Homo sapiens, UniProt Q06710); assay: inhibitors of PAX8-driven TPO luciferase reporter, dose response, RMG-I cells, cherry-pick (AID 687027); assay type: functional, cell-based;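 also: luciferase reporter driven by Pax8 target thyroperoxidase promoter measured by SteadyGlo luminescence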
Sequence of Paired box protein Pax-8 (Q06710 whole entry): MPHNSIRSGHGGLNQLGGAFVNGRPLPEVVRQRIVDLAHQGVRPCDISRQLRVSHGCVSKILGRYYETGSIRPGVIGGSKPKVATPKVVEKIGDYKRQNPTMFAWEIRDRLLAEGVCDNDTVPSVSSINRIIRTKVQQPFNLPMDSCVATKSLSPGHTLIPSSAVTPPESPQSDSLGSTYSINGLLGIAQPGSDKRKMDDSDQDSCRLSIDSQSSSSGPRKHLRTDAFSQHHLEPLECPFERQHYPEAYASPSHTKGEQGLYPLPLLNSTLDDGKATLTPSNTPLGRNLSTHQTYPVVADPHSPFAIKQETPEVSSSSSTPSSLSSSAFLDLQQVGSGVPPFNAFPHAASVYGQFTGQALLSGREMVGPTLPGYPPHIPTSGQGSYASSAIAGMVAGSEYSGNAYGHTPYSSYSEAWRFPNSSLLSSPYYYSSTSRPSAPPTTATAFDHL

[4] = test system: INS1; assay: beta cell apoptosis inhibitors, cytokine rescue, dose response, luminescence, retest (AID 449756); assay type: functional, cell-based; details: Rattus norvegicus;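 also: cell death triggered by IL-1 beta plus TNF-alpha plus IFN-gamma mixture; protective hits raise ATP signal compared with cytokine alone wells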

Which IC50 [1] does the source give for O=C(/C=C/c1cccs1)NC(=S)NNC(=O)c1ccccc1O here?
The IC50 was 114 µM (inactive).

And the IC50 [2]?
Its IC50 is 109 µM (inactive).

And the AC50 [3]?
Its AC50 is 2.35 µM (active).

Which AC50 [4] does the source give for CC(=O)N(Cc1ccc(F)cc1)C1=C(NCCc2ccccc2)C(=O)c2ccccc2C1=O here?
Its AC50 is 2.18 µM (active).

With CCCCC(=O)NC(c1ccccc1)c1ccc2cccnc2c1O (stereo not drawn) as the compound, how does the IC50 [1] read?
The IC50 was > 118 µM (inactive).

What about the IC50 [2] of the same compound?
Its IC50 is > 118 µM (inactive).

And the AC50 [4]?
The AC50 was 0.614 µM (active).

What about the AC50 [3] of the same compound?
Its AC50 is 3.24 µM (active).
